As a reminder, the IC50 is the point on the concentration scale where inhibition reaches its midpoint. Broadly, the inhibition is the change of the read-out against control, counted positive when it falls.

The source of these data is EP0823908B1, “PYRIDO[2,3-d]PYRIMIDINES FOR INHIBITING PROTEIN TYROSINE KINASE MEDIATED [sequence] PROLIFERATION” (Warner-Lambert Company LLC, priority 1995, dated 1996).

Read-outs that look alike come from different tables or passages of the source.

Common to all, as to format: biochemical
Assay [1] has as its target T1, C-src kinase (Homo sapiens, UniProt P12931).
T1 construct: made in house; host or cells: baculovirus infected insect cells
In words: C-src kinase assay (poly GluTyr substrate). As to conditions: for IC50: read-out: C-src TK IC50; for inhibition at 50 µM: read-out: C-src TK % Inhibition at 50 µM. The protocol:
V-src or C-src kinase is purified from baculovirus infected insect cell lysates using an antipeptide monoclonal antibody directed against the N-terminal 2-17 amino acids. The antibody, covalently linked to 0.65-µm latex beads, is added to a suspension of insect cell lysis buffer comprised of 150 mM NaCl, 50 mM Tris pH 7.5, 1 mM DTT, 1% NP-40, 2 mM EGTA, 1 mM sodium vanadate, 1 mM PMSF, 1 µg/mL each of leupeptin, pepstatin, and aprotinin. […] At the end of the lysate incubation, the beads are rinsed 3 times in lysis buffer, resuspended in lysis buffer containing 10% glycerol, and frozen. These latex beads are thawed, rinsed 3 times in assay buffer which is comprised of 40 mM tris pH 7.5, 5 mM MgCl2, and suspended in the same buffer. In a Millipore 96-well plate with a 0.65 µm polyvinylidine membrane bottom are added the reaction components: 10-µL V-src or C-src beads, 10 µL of 2.5 mg/mL poly GluTyr substrate, 5 µM ATP containing 0.2 µCi labeled ^32P-ATP, 5µL DMSO containing inhibitors or as a solvent control, and buffer to make the final volume 125 µL. The reaction is started at room temperature by addition of the ATP and quenched 10 minutes later by the addition of 125 µL of 30% TCA, 0.1 M sodium pyrophosphate for 5 minutes on ice. […] The filters are punched, counted in a liquid scintillation counter, and the data examined for inhibitory activity in comparison to a known inhibitor such as erbstatin.

The target of assay [2] is T2, Human EGF receptor tyrosine kinase (Homo sapiens, UniProt P00533).
T2 construct: Human EGF receptor tyrosine kinase was isolated from A431 epidermoid carcinoma cells; endogenous in cells; host or cells: A431 epidermoid carcinoma cells
The experiment in a line: EGF receptor tyrosine kinase enzyme assay (substrate peptide phosphorylation). Conditions: for inhibition at 50 µM: read-out: EGF-FL % Inhibition at 50 µM; for IC50: read-out: EGF-FL IC50. The protocol: Human EGF receptor tyrosine kinase was isolated from A431 epidermoid carcinoma cells by the following methods. Cells were grown in roller bottles in 50% Dulbecco's Modified Eagle medium and 50% HAM F-12 nutrient media (Gibco) containing 10% fetal calf serum. Approximately 10^9 cells were lysed in two volumes of buffer containing 20 mM 2-(4N-[2-hydroxymethyl]-piperazin-1-yl)ethanesulfonic acid, pH 7.4, 5 mM ethylene glycol bis(2-aminoethyl ether) N,N,N',N'-tetraacetic acid, 1% Triton X-100, 10% glycerol, 0.1 mM sodium orthovanadate, 5 mM sodium fluoride, 4 mM pyrophosphate, 4 mM benzamide, 1 mM dithiothreitol, 80 µg/mL aprotinin, 40 µg/mL leupeptin, and 1 mM phenylmethylsulfonyl fluoride. […] Contaminating proteins were washed from the resin with 1 M NaCl in equilibration buffer, and the enzyme was eluted with 0.5 M N-acetyl-1-D-glucosamine in equilibration buffer.
The reaction was terminated by the addition of 2 mL of 75 mM phosphoric acid and passed through a 2.5-cm phosphocellulose filter disc to bind the peptide. The filter was washed 5 times with 75 mM phosphoric acid and placed in a vial along with 5 mL of scintillation fluid (Ready gel Heckman).

The target of assay [3] is T3, human FGF-1 (flg) receptor tyrosine kinase (Homo sapiens, UniProt P11362).
T3 construct: amplify a fragment of DNA that codes for the intracellular tyrosine kinase domain; made in house; host or cells: SF9 insect cells (baculovirus)
In words: FGF receptor tyrosine kinase assay (32P incorporation into glutamate-tyrosine co-polymer). As to conditions: for inhibition at 50 µM: read-out: FGFr-TK % Inhibition at 50 µM. An excerpt:
(§1) Full length cDNAs for the mouse PDGF-β and human FGF-1 (flg) receptor tyrosine kinases were obtained from J. Escobedo and prepared as described in J. Biol. Chem., 262:1482-1487 […], and PCR primers were designed to amplify a fragment of DNA that codes for the intracellular tyrosine kinase domain. The fragment was melded into a baculovirus vector, cotransfected with AcMNPV DNA, and the recombinant virus isolated. SF9 insect cells were infected with the virus to overexpress the protein, and the cell lysate was used for the assay. The assay was performed in 96-well plates (100 µL/incubation/well), and conditions were optimized to measure the incorporation of ^32P from γ^32P-ATP into a glutamate-tyrosine co-polymer substrate. Briefly, to each well was added 82.5 µL of incubation buffer containing 25 mM Hepes (pH 7.0), 150 mM NaCl, 0.1% Triton X-100, 0.2 mM PMSF, 0.2 mM Na3VO4, 10 mM MnCl2, and 750 µg/mL of Poly (4:1) glutamate-tyrosine followed by 2.5 µL of inhibitor and 5µL of enzyme lysate (7.5 µg/µL FGF-TK or 6.0 µg/µL PDGF-TK) to initiate the reaction. Following a 10 minute incubation at 25°C, 10 µL of γ^32P-ATP (0.4 µCi plus 50 µM ATP) was added to each well and samples were incubated for an additional 10 minutes at 25°C. The reaction was terminated by the addition of 100 µL of 30% trichloroacetic acid (TCA) containing 20 mM sodium pyrophosphate and precipitation of material onto glass fiber filter mats (Wallac). […] Nonspecific activity was defined as radioactivity retained on the filters following incubation of samples with buffer alone (no enzyme). Specific enzymatic activity was defined as total activity (enzyme plus buffer) minus nonspecific activity.

For assay [4], the target named is T4, mouse PDGF-β receptor tyrosine kinase (Mus musculus, UniProt P05622).
T4 construct: amplify a fragment of DNA that codes for the intracellular tyrosine kinase domain; made in house; host or cells: SF9 insect cells (baculovirus)
The experiment in a line: PDGF receptor tyrosine kinase assay (32P incorporation into glutamate-tyrosine co-polymer). As to conditions: for IC50: read-out: PDGFr-TK IC50; for inhibition at 50 µM: read-out: PDGFr-TK % Inhibition at 50 µM.
From the text: as §1

T2 sequence (P00533 25-1210): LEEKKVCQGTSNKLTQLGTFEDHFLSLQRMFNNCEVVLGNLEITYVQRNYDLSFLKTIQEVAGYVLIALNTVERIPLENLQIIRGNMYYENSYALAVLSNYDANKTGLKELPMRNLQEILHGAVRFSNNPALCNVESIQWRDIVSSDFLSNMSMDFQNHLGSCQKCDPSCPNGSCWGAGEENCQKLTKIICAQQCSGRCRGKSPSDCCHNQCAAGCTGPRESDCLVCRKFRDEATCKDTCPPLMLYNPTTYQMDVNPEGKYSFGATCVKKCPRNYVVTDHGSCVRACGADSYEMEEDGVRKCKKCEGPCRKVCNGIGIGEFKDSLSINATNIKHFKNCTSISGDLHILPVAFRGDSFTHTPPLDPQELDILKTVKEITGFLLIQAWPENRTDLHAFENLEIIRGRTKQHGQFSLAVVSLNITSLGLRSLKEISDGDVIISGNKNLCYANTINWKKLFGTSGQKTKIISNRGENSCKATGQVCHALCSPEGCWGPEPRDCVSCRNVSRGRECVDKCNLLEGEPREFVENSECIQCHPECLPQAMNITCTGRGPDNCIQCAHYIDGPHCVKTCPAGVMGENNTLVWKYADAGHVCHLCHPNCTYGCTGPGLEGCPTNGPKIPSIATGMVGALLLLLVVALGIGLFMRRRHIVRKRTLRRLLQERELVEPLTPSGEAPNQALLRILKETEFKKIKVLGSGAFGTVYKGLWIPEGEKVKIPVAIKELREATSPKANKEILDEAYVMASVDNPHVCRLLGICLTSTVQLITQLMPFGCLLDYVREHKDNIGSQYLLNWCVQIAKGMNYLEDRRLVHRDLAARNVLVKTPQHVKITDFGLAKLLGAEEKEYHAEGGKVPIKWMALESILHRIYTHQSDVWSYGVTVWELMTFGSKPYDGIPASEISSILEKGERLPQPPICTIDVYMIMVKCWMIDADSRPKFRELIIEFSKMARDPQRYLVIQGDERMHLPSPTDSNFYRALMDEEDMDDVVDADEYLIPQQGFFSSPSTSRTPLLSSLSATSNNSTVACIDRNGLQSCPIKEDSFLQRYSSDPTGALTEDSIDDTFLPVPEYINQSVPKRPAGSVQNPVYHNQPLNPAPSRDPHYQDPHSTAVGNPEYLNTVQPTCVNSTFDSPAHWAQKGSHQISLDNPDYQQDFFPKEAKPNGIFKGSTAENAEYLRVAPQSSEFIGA
T1 sequence (P12931 whole entry): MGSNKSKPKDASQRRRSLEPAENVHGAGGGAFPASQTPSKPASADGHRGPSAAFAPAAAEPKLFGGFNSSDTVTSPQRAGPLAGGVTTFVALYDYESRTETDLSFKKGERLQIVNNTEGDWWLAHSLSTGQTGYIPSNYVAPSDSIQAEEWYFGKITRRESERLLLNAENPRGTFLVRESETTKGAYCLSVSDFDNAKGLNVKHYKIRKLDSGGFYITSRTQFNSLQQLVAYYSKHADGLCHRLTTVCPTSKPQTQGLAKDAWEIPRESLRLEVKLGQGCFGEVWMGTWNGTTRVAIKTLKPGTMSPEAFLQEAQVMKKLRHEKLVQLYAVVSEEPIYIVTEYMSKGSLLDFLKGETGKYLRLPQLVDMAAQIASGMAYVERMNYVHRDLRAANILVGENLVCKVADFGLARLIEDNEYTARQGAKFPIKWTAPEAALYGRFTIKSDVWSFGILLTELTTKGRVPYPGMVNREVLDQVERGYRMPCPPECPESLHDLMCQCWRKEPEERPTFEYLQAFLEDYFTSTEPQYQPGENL
T3 sequence (P11362 478-767 limits assumed): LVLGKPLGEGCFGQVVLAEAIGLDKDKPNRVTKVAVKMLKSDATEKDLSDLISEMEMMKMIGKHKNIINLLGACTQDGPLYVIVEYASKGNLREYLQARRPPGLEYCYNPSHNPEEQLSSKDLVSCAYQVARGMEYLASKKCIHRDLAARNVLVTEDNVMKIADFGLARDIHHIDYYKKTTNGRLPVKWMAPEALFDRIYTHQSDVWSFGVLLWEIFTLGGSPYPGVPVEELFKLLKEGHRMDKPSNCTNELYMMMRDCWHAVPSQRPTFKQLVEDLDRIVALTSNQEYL
T4 sequence (P05622 599-961 limits assumed): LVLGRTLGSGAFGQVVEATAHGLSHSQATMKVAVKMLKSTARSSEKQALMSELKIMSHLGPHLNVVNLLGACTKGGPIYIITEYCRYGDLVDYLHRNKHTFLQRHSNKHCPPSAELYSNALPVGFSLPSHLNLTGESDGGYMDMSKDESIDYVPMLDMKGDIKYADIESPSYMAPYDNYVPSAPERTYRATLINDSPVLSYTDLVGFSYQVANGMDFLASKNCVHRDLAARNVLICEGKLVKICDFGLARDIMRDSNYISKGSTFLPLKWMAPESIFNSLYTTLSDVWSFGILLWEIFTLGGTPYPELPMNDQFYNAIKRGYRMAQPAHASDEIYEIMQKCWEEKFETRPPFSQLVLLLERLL

`Cc1cccc(C)c1-c1cc2cnc(N)nc2n(C)c1=O` [Example 13, 2-Amino-6-(2,6-dimethylphenyl)-8-methyl-pyrido[2,3-d]-pyrimidin-7(8H)-one]: the IC50 was 0.29 µM in assay [1], 6.2 µM in assay [3] (read-out: FGFr-TK IC50) and 2.56 µM in assay [4]. The inhibition at 50 µM in assay [2] was determined as 88%.

Turning to `Cc1ccccc1-c1cc2cnc(N)nc2n(C)c1=O` [Example 14, 2-Amino-6-(2-methylphenyl)-8-methyl-pyrido[2,3-d]-pyrimidin-7(8H)-one], the IC50 in assay [1] is 3.92 µM; in assay [3] (read-out: FGFr-TK IC50), 7.65 µM; in assay [4] it was 1.41 µM. In addition, the inhibition at 50 µM in assay [2] was 65%.

As for `CCCn1c(=O)c(-c2c(Cl)cccc2Cl)cc2cnc(N)nc21` [Example 31, 2-Amino-6-(2,6-dichlorophenyl)-8-propyl-8H-pyrido[2,3-d]pyrimidin-7-one], the inhibition at 50 µM in assay [1] and in assay [2] was 100% in each case. For the same compound, the figures for the IC50 in assay [3] (read-out: FGFr-TK IC50) and in assay [4] were 0.46 µM and 1.2 µM, respectively.

Turning to `CCCCn1c(=O)c(-c2c(Cl)cccc2Cl)cc2cnc(N)nc21` [Example 32, 2-Amino-8-butyl-6-(2,6-dichlorophenyl)-8H-pyrido[2,3-d]pyrimidin-7-one], the figures for the inhibition at 50 µM in assay [1] and in assay [2] were 33% and 100%, respectively. Moreover, the IC50 in assay [3] (read-out: FGFr-TK IC50) was 0.737 µM; in assay [4], 0.875 µM.

Regarding `CC(C)Cn1c(=O)c(-c2c(Cl)cccc2Cl)cc2cnc(N)nc21` [Example 33, 2-Amino-6-(2,6-dichlorophenyl)-8-isobutyl-8H-pyrido[2,3-d]pyrimidin-7-one], the IC50 in assay [1] came to 0.89 µM; in assay [3] (read-out: FGFr-TK IC50), 0.426 µM; in assay [4], 1.84 µM. The inhibition at 50 µM in assay [2] stood at 95%.

Consider `CN(C)CCCn1c(=O)c(-c2c(Cl)cccc2Cl)cc2cnc(N)nc21` [Example 34, 2-Amino-6-(2,6-dichlorophenyl)-8-(3-dimethylaminopropyl)-8H-pyrido[2,3-d]pyrimidin-7-one], for which the IC50 in assay [1] stood at 0.037 µM; in assay [2] it was 2.9 µM; in assay [3] (read-out: FGFr-TK IC50) it was 1.2 µM; in assay [4], 2.73 µM.

For the compound `COC(=O)Cn1c(=O)c(-c2c(Cl)cccc2Cl)cc2cnc(N)nc21` [Example 35, [2-Amino-6-(2,6-dichlorophenyl)-7-oxo-7H-pyrido[2,3-d]-pyrimiclin-8-yl]-acetic acid methyl ester], the IC50 in assay [1] worked out at 0.34 µM; in assay [2], 1.2 µM; in assay [3] (read-out: FGFr-TK IC50) it was 1.91 µM; in assay [4] it was 3.57 µM.

As for `CSc1ncc2cc(-c3c(Cl)cccc3Cl)c(=O)n(C)c2n1` [Example 37, 6-(2,6-Dichlorophenyl)-8-methyl-2-methylsulfanyl-8H pyrido[2,3-d]pyrimidin-7-one], the inhibition at 50 µM in assay [1] was 33%; in assay [2], 42%; in assay [3], 29%; in assay [4], 33%.

In the case of `Cn1c(=O)c(-c2c(Cl)cccc2Cl)cc2cnc(S(C)(=O)=O)nc21` [Example 39, 6-(2,6-Dichlorophenyl)-2-methanesulfonyl-8-methyl-8H-pyrido[2,3-d]pyrimidin-7-one], the figures for the inhibition at 50 µM in assay [1], in assay [2] and in assay [4] were 26%, 24% and 19%, respectively. For the same compound, the IC50 in assay [3] (read-out: FGFr-TK IC50) was 5.5 µM.

For `CN(C)c1ncc2cc(-c3c(Cl)cccc3Cl)c(=O)n(C)c2n1` [Example 41, 6-(2,6-Dichlorophenyl)-2-dimethylamino-8-methyl-8H-pyrido[2,3-d]pyrimidin-7-one], the inhibition at 50 µM in assay [1] worked out at 12%; in assay [2], 52%; in assay [3] it was 0%; in assay [4], 16%.

In the case of `CCNc1ncc2cc(-c3c(Cl)cccc3Cl)c(=O)n(C)c2n1` [Example 42, 6-(2,6-Dichlorophenyl)-2-ethylamino-8-methyl-8H-pyrido[2,3-d]dlpyrimidin-7-one], the IC50 in assay [1] worked out at 0.588 µM; in assay [3] (read-out: FGFr-TK IC50) it was 0.8 µM; in assay [4], 4.49 µM. The inhibition at 50 µM in assay [2] amounted to 82%.

On to `Cn1c(=O)c(-c2c(Cl)cccc2Cl)cc2cnc(NCCO)nc21` [Example 43, 6-(2,6-Dichlorophenyl)-2-(2-hydroxyethylamino)-8-methyl-8H-pyrido[2,3-d]pyrimidin-7-one], for which the IC50 in assay [1] worked out at 0.325 µM; in assay [3] (read-out: FGFr-TK IC50), 1.35 µM; in assay [4] it was 5.35 µM. Further, the inhibition at 50 µM in assay [2] was found to be 67%.

`CC(C)Nc1ncc2cc(-c3c(Cl)cccc3Cl)c(=O)n(C)c2n1` [Example 44, 6-(2,6-Dichlorophenyl)-2-isopropylamino-8-methyl-8H-pyrido[2,3-d]pyrimidin-7-one]: the concentration for half-maximal inhibition (IC50) in assay [1] came to 1.57 µM; in assay [3] (read-out: FGFr-TK IC50), 0.88 µM; in assay [4] it was 2.09 µM. The inhibition at 50 µM in assay [2] is 64%.

For the compound `CCCCNc1ncc2cc(-c3c(Cl)cccc3Cl)c(=O)n(C)c2n1` [Example 45, 2-Butylamino-6-(2,6-dichlorophenyl)-8-methyl-8H-pyrido[2,3-d]pyrimidin-7-one], the IC50 was 2.39 µM in assay [1], 4.04 µM in assay [3] (read-out: FGFr-TK IC50) and 5.68 µM in assay [4]. Besides, the inhibition at 50 µM in assay [2] is 85%.

Take `COc1ccc(CCNc2ncc3cc(-c4c(Cl)cccc4Cl)c(=O)n(C)c3n2)cc1OC` [Example 48, 6-(2,6-Dichlorophenyl)-2-[2-(3,4-dimethoxyphenyl)-ethylamino]-8-methyl-8H-pyrido[2,3-d]pyrimidin-7-one]: the IC50 stood at 2.54 µM in assay [1], 19.6 µM in assay [3] (read-out: FGFr-TK IC50) and 17.9 µM in assay [4]. Moreover, in assay [2], the inhibition at 50 µM amounted to 64%.

For the compound `Cn1c(=O)c(-c2c(Cl)cccc2Cl)cc2cnc(NCc3ccccn3)nc21` [Example 49, 6-(2,6-Dichlorophenyl)-8-methyl-2-[(pyridin-2-ylmethyl)-amino]-8H-pyrido[2,3-d]pyrimidin-7-one], the IC50 in assay [1] turned out to be 0.813 µM; in assay [3] (read-out: FGFr-TK IC50), 4.01 µM; in assay [4], 4.65 µM. In addition, the inhibition at 50 µM in assay [2] worked out at 61%.

As to `Cn1c(=O)c(-c2c(Cl)cccc2Cl)cc2cnc(Nc3cccnc3)nc21` [Example 79, 6-(2,6-Dichlorophenyl)-8-methyl-2-(pyridin-3-ylamino)-8H-pyrido[2,3-d]pyrimidin-7-one], the IC50 in assay [1] is 0.044 µM; in assay [2], 0.11 µM; in assay [3] it was 0.172 µM.

For `Nc1ncc2cc(-c3c(Cl)cccc3Cl)c(=O)n(Cc3ccncc3)c2n1` [Example 113, 2-Amino-6-(2,6-dichlorophenyl)-8-pyridin-4-ylmethyl-8H-pyrido[2,3-d]pyrimidin-7-one], the inhibition at 50 µM in assay [1] is 87%. In addition, the IC50 in assay [2] is 6.7 µM; in assay [4] it was 1.76 µM.
